Reference: EP0428132A1, “Pradimicin derivatives” (Bristol-Myers Squibb Company, priority 1989, dated 1991)
≈ marks a conversion by molar mass, not a printed value.

What was measured:
FA21436 = assay: In vitro antifungal activity, serial agar dilution method (Table 1); assay type: cell-based, Asoergukkys flavus; settings: for MIC: 40 h, pH 7, read-out: MIC, Asoergukkys flavus FA21436; for Partial Inhibition, Asoergukkys flavus FA21436: value in parentheses = Partial Inhibition, Sabouraud dextrose agar (pH 7.0), 28°C for 40 hours
Method: (§1) The inoculum size was adjusted to 10⁶ cells/ml, and a volume of approximately 0.003 ml of fungal suspension was applied to the surface of the antibiotic containing agar plates with a multiinoculator. After incubation, the lowest concentration of antibiotic causing virtually complete inhibition of fungal growth was determined as the minimum inhibitory concentration (MIC). Table 1. [table]

[1] = test system: Aspergillus fumigatus IAM2034; assay: as above; assay type: cell-based; settings: Sabouraud dextrose agar (pH 7.0), 28°C for 40 hours; for MIC: Aspergillus fumigatus, IAM2034; for Partial Inhibition, Aspergillus fumigatus IAM2034: value in parentheses = Partial Inhibition
Method: as §1

[2] = test system: Aspergillus fumigatus IAM2530; assay: as above; assay type: cell-based; settings: Sabouraud dextrose agar (pH 7.0), 28°C for 40 hours; for MIC: Aspergillus fumigatus, IAM2530
Method: as §1

[3] = test system: Blastomyces dermatidis D40; assay: as above; assay type: cell-based; settings: for MIC: Blastomyces, D40, 40 h, pH 7, read-out: MIC, Blastomyces dermatidis D40; for Partial Inhibition, Blastomyces dermatidis D40: value in parentheses = Partial Inhibition, Sabouraud dextrose agar (pH 7.0), 28°C for 40 hours
Method: as §1

Candida albicans A9540 [4] = assay: as above; assay type: cell-based; settings: Sabouraud dextrose agar (pH 7.0), 28°C for 40 hours; for MIC: Candida albicans, A9540
Method: as §1

Candida albicans IAM4888 = assay: as above; assay type: cell-based; settings: Sabouraud dextrose agar (pH 7.0), 28°C for 40 hours; for MIC: Candida albicans, IAM4888
Method: as §1

[5] = test system: Cryptococcus neoformans D49; assay: as above; assay type: cell-based; settings: Cryptococcus neoformans, D49, 40 h, pH 7, read-out: MIC, Cryptococcus neoformans D49
Method: as §1

[6] = test system: Cryptococcus neoformans IAM4514; assay: as above; assay type: cell-based; settings: Cryptococcus neoformans, IAM4514; Sabouraud dextrose agar (pH 7.0); 28°C for 40 hours
Method: as §1

[7] = test system: Fusarium moniliforme A2284; assay: as above; assay type: cell-based; settings: Fusarium verticillioides, A2284; Sabouraud dextrose agar (pH 7.0); 28°C for 40 hours
Method: as §1

Mucor spinosus IFO5317 = assay: as above; assay type: cell-based; settings: Sabouraud dextrose agar (pH 7.0), 28°C for 40 hours; for MIC: Mucor spinosus, IFO5317; for Partial Inhibition, Mucor spinosus IFO5317: value in parentheses = Partial Inhibition
Method: as §1

[8] = test system: Petriellidium boydii IFO8078; assay: as above; assay type: cell-based; settings: Scedosporium boydii, IFO8078; Sabouraud dextrose agar (pH 7.0); 28°C for 40 hours
Method: as §1

[9] = test system: Sprotricosis schenckii IFO8158; assay: as above; assay type: cell-based; settings: for MIC: 40 h, pH 7, read-out: MIC, Sprotricosis schenckii IFO8158; for Partial Inhibition, Sprotricosis schenckii IFO8158: value in parentheses = Partial Inhibition, Sabouraud dextrose agar (pH 7.0), 28°C for 40 hours
Method: as §1

[10] = test system: Trichophyton mentagrophytes #4329; assay: as above; assay type: cell-based; settings: Sabouraud dextrose agar (pH 7.0), 28°C for 40 hours; for MIC: Trichophyton mentagrophytes
Method: as §1

[11] = test system: Trichophyton mentagrophytes D155; assay: as above; assay type: cell-based; settings: Trichophyton mentagrophytes, D155; Sabouraud dextrose agar (pH 7.0); 28°C for 40 hours
Method: as §1

Candida albicans A9540 [12] = assay: Intravenous Candida albicans infection mouse model, Table 2 part A; assay type: in vivo; settings: drug administered once just after infection, 20 days after fungal challenge, method of Litchfield and Wilcoxon, male ICR mice
Method: Several compounds were also evaluated in an intravenous Candida albicans […] infection mouse model. The test organism was suspended in saline approximately 10 times the median lethal dose of the fungus (10⁶ cells/mouse) were used to infect intravenously male ICR mice weighing 20 to 24 g. Groups of five mice at each dose level were given the test compounds intravenously or intramuscularly. The 50% protective dose (PD₅₀) was calculated from survival rates recorded 20 or 21 days after the fungal challenge. Control animals died between 7 to 15 days.

[13] = value in parentheses = Partial Inhibition

Method for physchem: The sample (3 ∼ 3.5 mg) was suspended in 1 ml of PBS(-) or PBS(+), sonicated at 30°C for 10 minutes, and allowed to stand at room temperature for 2 hours. The resulting solution or suspension was centrifuged at 12,000 rpm for 10 minutes. The supernatant (pH 6.7 ∼ 7.2) was diluted (5 x or 50 x) with 0.01N NaOH (pH ca. 11.5) and its UV absorption at 500 nm was measured. The solubility was assessed by the absorption coefficient value with reference to the standard. […] The zwitterionic form sample was used for the solubility test as it is. The hydrochloride salt sample (3 mg) was dissolved in 3 ml of distilled water and neutralized with 0.01N NaOH, and then the solution was lyophilized to give a test sample.
Dulbecco's phosphate buffered saline (PBS) solution was used. Preparation of PBS(-) solution: One PBS(-) tablet (Flow Laboratories, Cat. No. 28-103-05) was dissolved in 100 ml distilled water, and the solution was autoclaved for 10 minutes at 115°C. This solution contains 0.2 g/L of KCl, 0.2 g/L of KH₂PO₄, 8 g/L of NaCl, and 1.15 g/L of Na₂HPO₄. Preparation of PBS(+) solution: One PBS(-) tablet was dissolved in 80 ml distilled water; 10 mg of CaCl₂ was dissolved in 10 ml distilled water; 10 mg of MgCl₂, 6H₂O was dissolved in 10 ml distilled water. These solutions were separately autoclaved, as described above, and mixed when cooled.

SMILES	MIC (FA21436)	Partial Inhibition, Asoergukkys flavus FA21436 (FA21436)	MIC [1]	MIC [2]	MIC [3]	MIC (Candida albicans A9540 [4])	MIC (Candida albicans IAM4888)	MIC [5]	MIC [6]	MIC [7]	MIC (Mucor spinosus IFO5317)	Partial Inhibition, Mucor spinosus IFO5317 (Mucor spinosus IFO5317)	MIC [8]	MIC [9]	MIC [10]	MIC [11]	PD₅₀ (Candida albicans A9540 [12])	solubility at 2 h (physchem; Method II (+): PBS(+))	Partial Inhibition, Aspergillus fumigatus IAM2034 [1]	solubility at 2 h (physchem; Method II (-): PBS(-))	also measured
COc1cc(O)c2c(c1)C(=O)c1c(cc3c(c1O)-c1c(cc(C)c(C(=O)N[C@H](C)C(=O)O)c1O)[C@H](O[C@@H]1O[C@H](C)[C@H](N(C)C(=O)CCN)[C@H](O[C@@H]4OC[C@@H](O)[C@H](O)[C@H]4O)[C@H]1O)[C@H]3O)C2=O [Ex. 11, N-(β-alanyl) pradimicin A]	> 100 µg/mL	>100.0 (100.0) µg/ml	100 µg/mL (≈ 110 µM)	50 µg/mL (≈ 54.8 µM)	12.5 µg/mL (≈ 13.7 µM)	12.5 µg/mL (≈ 13.7 µM)	12.5 µg/mL (≈ 13.7 µM)	1.6 µg/mL (≈ 1.75 µM)	1.6 µg/mL (≈ 1.75 µM)	> 100 µg/mL	> 100 µg/mL	25.0 µg/mL	> 100 µg/mL	6.3 µg/mL (≈ 6.91 µM)	100 µg/mL (≈ 110 µM)	100 µg/mL (≈ 110 µM)	36 mg/kg	0.25 mg/mL (≈ 274 µM)	–	–	Partial Inhibition, Candida albicans A9540 (Candida albicans A9540 [4]; [13]): 6.3 µg/mL; Partial Inhibition, Candida albicans IAM4888 (Candida albicans IAM4888; [13]): 6.3 µg/mL
COc1cc(O)c2c(c1)C(=O)c1c(cc3c(c1O)-c1c(cc(C)c(C(=O)N[C@H](C)C(=O)O)c1O)[C@H](O[C@@H]1O[C@H](C)[C@H](N(C)CC(=O)O)[C@H](O[C@@H]4OC[C@@H](O)[C@H](O)[C@H]4O)[C@H]1O)[C@H]3O)C2=O [Ex. 1, N-(carboxymethyl) pradimicin A]	> 100 µg/mL	–	> 100 µg/mL	100 µg/mL (≈ 111 µM)	> 100 µg/mL	50 µg/mL (≈ 55.6 µM)	50 µg/mL (≈ 55.6 µM)	25 µg/mL (≈ 27.8 µM)	12.5 µg/mL (≈ 13.9 µM)	> 100 µg/mL	> 100 µg/mL	>100.0 (100.0) µg/ml	> 100 µg/mL	> 100 µg/mL	> 100 µg/mL	> 100 µg/mL	45 mg/kg	> 31 mg/mL	50.0 µg/mL	> 30 mg/mL	Partial Inhibition, Blastomyces dermatidis D40 [3]: 50.0 µg/mL; Partial Inhibition, Sprotricosis schenckii IFO8158 [9]: 50.0 µg/mL
CCOC(=O)CN(C)[C@@H]1[C@H](O[C@@H]2OC[C@@H](O)[C@H](O)[C@H]2O)[C@@H](O)[C@H](O[C@H]2c3cc(C)c(C(=O)N[C@H](C)C(=O)O)c(O)c3-c3c(cc4c(c3O)C(=O)c3cc(OC)cc(O)c3C4=O)[C@@H]2O)O[C@@H]1C [Ex. 3, N-(ethoxycarbonylmethyl) pradimicin A]	> 100 µg/mL	50.0 µg/mL	> 100 µg/mL	50 µg/mL (≈ 53.9 µM)	100 µg/mL (≈ 108 µM)	50 µg/mL (≈ 53.9 µM)	25 µg/mL (≈ 27 µM)	6.3 µg/mL (≈ 6.8 µM)	6.3 µg/mL (≈ 6.8 µM)	> 100 µg/mL	> 100 µg/mL	>100.0 (100.0) µg/ml	> 100 µg/mL	25 µg/mL (≈ 27 µM)	> 100 µg/mL	> 100 µg/mL	18 mg/kg	–	>100.0 (100.0) µg/ml	11 mg/mL (≈ 11900 µM)	Partial Inhibition, Aspergillus fumigatus IAM2530 [2, 13]: 25.0 µg/mL; Partial Inhibition, Blastomyces dermatidis D40 [3]: 12.5 µg/mL; Partial Inhibition, Sprotricosis schenckii IFO8158 [9]: 12.5 µg/mL
COc1cc(O)c2c(c1)C(=O)c1c(cc3c(c1O)-c1c(cc(C)c(C(=O)N[C@H](C)C(=O)O)c1O)[C@H](O[C@@H]1O[C@H](C)[C@H](NCS(=O)(=O)O)[C@H](O[C@@H]4OC[C@@H](O)[C@H](O)[C@H]4O)[C@H]1O)[C@H]3O)C2=O [Ex. 7, N-(sodiosulfomethyl) pradimicin C]	> 50 µg/mL	3.1 µg/mL	> 50 µg/mL	3.1 µg/mL (≈ 3.37 µM)	3.1 µg/mL (≈ 3.37 µM)	3.1 µg/mL (≈ 3.37 µM)	3.1 µg/mL (≈ 3.37 µM)	0.4 µg/mL (≈ 0.434 µM)	0.4 µg/mL (≈ 0.434 µM)	> 50 µg/mL	> 50 µg/mL	–	> 50 µg/mL	1.6 µg/mL (≈ 1.74 µM)	25 µg/mL (≈ 27.1 µM)	50 µg/mL (≈ 54.3 µM)	7.2 mg/kg	–	–	0.003 mg/mL (≈ 3.26 µM)	Partial Inhibition, Trichophyton mentagrophytes #4329 [10, 13]: 3.1 µg/mL
COc1cc(O)c2c(c1)C(=O)c1c(cc3c(c1O)-c1c(cc(C)c(C(=O)N[C@H](C)C(=O)O)c1O)[C@H](O[C@@H]1O[C@H](C)[C@H](N(C)C=O)[C@H](O[C@@H]4OC[C@@H](O)[C@H](O)[C@H]4O)[C@H]1O)[C@H]3O)C2=O [Ex. 9, N-formyl pradimicin A]	> 100 µg/mL	–	50 µg/mL (≈ 57.6 µM)	50 µg/mL (≈ 57.6 µM)	100 µg/mL (≈ 115 µM)	25 µg/mL (≈ 28.8 µM)	25 µg/mL (≈ 28.8 µM)	25 µg/mL (≈ 28.8 µM)	12.5 µg/mL (≈ 14.4 µM)	> 100 µg/mL	> 100 µg/mL	50.0 µg/mL	–	50 µg/mL (≈ 57.6 µM)	25 µg/mL (≈ 28.8 µM)	25 µg/mL (≈ 28.8 µM)	>50 mg/kg	> 32 mg/mL	–	–	–
COc1cc(O)c2c(c1)C(=O)c1c(cc3c(c1O)-c1c(cc(C)c(C(=O)N[C@H](C)C(=O)O)c1O)[C@H](O[C@@H]1O[C@H](C)[C@H](N(C)CC(N)=O)[C@H](O[C@@H]4OC[C@@H](O)[C@H](O)[C@H]4O)[C@H]1O)[C@H]3O)C2=O [Ex. 2, N-(carbamoylmethyl) pradimicin A]	> 100 µg/mL	50.0 µg/mL	> 100 µg/mL	12.5 µg/mL (≈ 13.9 µM)	25 µg/mL (≈ 27.8 µM)	50 µg/mL (≈ 55.7 µM)	25 µg/mL (≈ 27.8 µM)	12.5 µg/mL (≈ 13.9 µM)	3.1 µg/mL (≈ 3.45 µM)	> 100 µg/mL	> 100 µg/mL	>100.0 (100.0) µg/ml	> 100 µg/mL	25 µg/mL (≈ 27.8 µM)	> 100 µg/mL	> 100 µg/mL	29 mg/kg	–	50.0 µg/mL	11 mg/mL (≈ 12300 µM)	Partial Inhibition, Blastomyces dermatidis D40 [3]: 12.5 µg/mL; Partial Inhibition, Sprotricosis schenckii IFO8158 [9]: 12.5 µg/mL
COc1cc(O)c2c(c1)C(=O)c1c(cc3c(c1O)-c1c(cc(C)c(C(=O)N[C@H](C)C(=O)O)c1O)[C@H](O[C@@H]1O[C@H](C)[C@H](N(C)C(=O)CN)[C@H](O[C@@H]4OC[C@@H](O)[C@H](O)[C@H]4O)[C@H]1O)[C@H]3O)C2=O [Ex. 10, N-glycyl pradimicin A]	> 100 µg/mL	–	100 µg/mL (≈ 111 µM)	12.5 µg/mL (≈ 13.9 µM)	12.5 µg/mL (≈ 13.9 µM)	12.5 µg/mL (≈ 13.9 µM)	6.3 µg/mL (≈ 7.02 µM)	1.6 µg/mL (≈ 1.78 µM)	1.6 µg/mL (≈ 1.78 µM)	> 100 µg/mL	> 100 µg/mL	–	–	12.5 µg/mL (≈ 13.9 µM)	12.5 µg/mL (≈ 13.9 µM)	12.5 µg/mL (≈ 13.9 µM)	30 mg/kg	1 mg/mL (≈ 1110 µM)	–	–	–
